Literature values in patent US9492446B2, “Manufacturing method of solid dispersion containing itraconazole” (CTC BIO, Inc., priority 2004, dated 2016).

How the values were obtained:
[1] = AIDS patients, higher pH in stomach; oral

In the case of `CCC(C)n1ncn(-c2ccc(N3CCN(c4ccc(OCC5COC(Cn6cncn6)(c6ccc(Cl)cc6Cl)O5)cc4)CC3)cc2)c1=O` (centres unmarked) [Itraconazole], the water-solubility is listed as “less than 1 ug/ml” and the “absorption of itraconazole relative to that of normal people” value [1] is listed as “no more than 50%”.
